This is an account of results in US11292821B2, “Peptides and combination of peptides for use in immunotherapy against lung cancer, including NSCLC, SCLC and other cancers” (Immatics Biotechnologies GmbH, priority 2017, dated 2022).

One assay has as its target HLA-A*02 (Homo sapiens, UniProt P04439, D140Y/D185E/D98H/E176V/E277Q/G131W/G231S/I119V/I121R/I166T/I218V/N151K/N90K/P208A/P217A/Q86G/Q94H/R138H/R169H). Briefly: MHC binding assay (UV-ligand exchange, β2m ELISA).
For a further assay, the system named is CD8+ T cells. Briefly: In vitro T-cell priming assay with aAPCs (in vitro immunogenicity for MHC class I presented peptides). It counts as cell-based, human. Conditions: in vitro immunogenicity, HLA B*44.
The subject of another assay is HLA-B*44. Nature of the assay: MHC binding assay (UV-ligand exchange, β2m ELISA). Details: species or system human. Conditions: for Peptide exchange (peptide exchange yield, MHC class I binding score): UV-ligand exchange, β2m ELISA.

Regarding “86 (FVIDGFDEL; listed as Homo sapiens) [compound 86]”, in the assay with HLA-A*02, the “Peptide exchange (peptide exchange yield, MHC class I binding score)” value (shortened to “Peptide exchange”) was ““++++” (>75% = ++++)”. “91 (FALPGLLHA; listed as Homo sapiens) [compound 91]”: the “Peptide exchange” value with HLA-A*02 is on record as ““+++” (>50 = +++)”. As to “92 (NLRDLLSEV; listed as Homo sapiens) [compound 92]”, in the assay with HLA-A*02, the “Peptide exchange” value is ““+++” (>50 = +++)”. With “98 (LQSSGLTLLL; listed as Homo sapiens) [compound 98]”, in the assay with HLA-A*02, the “Peptide exchange” value was ““++++” (>75% = ++++)”. Regarding “99 (FLKEKVPGI; listed as Homo sapiens) [compound 99]”, the “Peptide exchange” value with HLA-A*02 is on record as ““++++” (>75% = ++++)”. As for “100 (RQYPTPFQL; listed as Homo sapiens) [compound 100]”, the “Peptide exchange” value in the assay with HLA-A*02 is on record as ““++++” (>75% = ++++)”. The same measure, in the same setting: to “102 (SLLEQAIAL; listed as Homo sapiens) [compound 102]” belongs ““++++” (>75% = ++++)”; to “103 (FLYYPDPVL; listed as Homo sapiens) [compound 103]”, ““++++” (>75% = ++++)”; to “104 (GMLDIFWGV; listed as Homo sapiens) [compound 104]”, ““++++” (>75% = ++++)”. The same measure, in the same setting: to “105 (SLLTHIPTA; listed as Homo sapiens) [compound 105]” belongs ““++++” (>75% = ++++)”; to “106 (FIIDTTYPAYV; listed as Homo sapiens) [compound 106]”, ““++++” (>75% = ++++)”; to “107 (LLQGAIESV; listed as Homo sapiens) [compound 107]”, ““++++” (>75% = ++++)”. Consider “109 (LLLGSIGLLGV; listed as Homo sapiens) [compound 109]”, for which the “Peptide exchange” value with HLA-A*02 was ““++++” (>75% = ++++)”.

Regarding “110 (LLADFQALL; listed as Homo sapiens) [compound 110]”, the “Peptide exchange” value with HLA-A*02 is on record as ““++++” (>75% = ++++)”. The same measure, in the same setting: to “111 (ALCLLLHLL; listed as Homo sapiens) [compound 111]” belongs ““+” (>10% = +)”. Regarding “112 (SVSDGIHSV; listed as Homo sapiens) [compound 112]”, in the assay with HLA-A*02, the “Peptide exchange” value is on record as ““++++” (>75% = ++++)”. In the case of “113 (AVLTGLVEV; listed as Homo sapiens) [compound 113]”, the “Peptide exchange” value in the assay with HLA-A*02 was ““++++” (>75% = ++++)”. Same read-out and setting: in the case of “114 (ILDERQVLL; listed as Homo sapiens) [compound 114]” it was ““++++” (>75% = ++++)”.

With “115 (MLLETQDALYV; listed as Homo sapiens) [compound 115]”, the “Peptide exchange” value in the assay with HLA-A*02 was ““++++” (>75% = ++++)”.

On to “116 (VLMEENSKL; listed as Homo sapiens) [compound 116]”, for which the “Peptide exchange” value with HLA-A*02 was ““++++” (>75% = ++++)”. Same read-out and setting: in the case of “117 (FLDPNARPLV; listed as Homo sapiens) [compound 117]” it was ““++++” (>75% = ++++)”. Consider “118 (ALSSVLHSI; listed as Homo sapiens) [compound 118]”, for which, in the assay with HLA-A*02, the “Peptide exchange” value is listed as ““++++” (>75% = ++++)”.

Consider “119 (RTADITVTV; listed as Homo sapiens) [compound 119]”, for which the “Peptide exchange” value in the assay with HLA-A*02 is on record as ““++++” (>75% = ++++)”. With “120 (ALLANLPAV; listed as Homo sapiens) [compound 120]”, in the assay with HLA-A*02, the “Peptide exchange” value is given as ““++++” (>75% = ++++)”.

On to “121 (ALVDTLTGI; listed as Homo sapiens) [compound 121]”, for which, in the assay with HLA-A*02, the “Peptide exchange” value is ““++++” (>75% = ++++)”. Still for that read-out and setting: in the case of “122 (ALLEMFPEITV; listed as Homo sapiens) [compound 122]” it was ““++++” (>75% = ++++)”; in that of “123 (LMAFFLAVV; listed as Homo sapiens) [compound 123]”, ““++” (>20% = ++)”; in that of “124 (SVASVLLYL; listed as Homo sapiens) [compound 124]”, ““++++” (>75% = ++++)”. Regarding “126 (FLSTVTSV; listed as Homo sapiens) [compound 126]”, the “Peptide exchange” value in the assay with HLA-A*02 was ““++++” (>75% = ++++)”. In the case of “320 (MEVDPIGHVYIF; listed as Homo sapiens) [compound 320]”, in the assay with CD8+ T cells, the “Wells positive [%]” value is on record as ““+” (<20% = +)”. Further, the “Peptide exchange” value with HLA-B*44 was ““++++” (>75% = ++++)”.

Consider “322 (KEVDPAGHSY; listed as Homo sapiens) [compound 322]”, for which the “Wells positive [%]” value in the assay on CD8+ T cells is ““++” (20%-49% = ++)”. For the same substance, the “Peptide exchange” value in the assay with HLA-B*44 is recorded as ““++” (>20% = ++)”.

Turning to “323 (SEFMQVIF; listed as Homo sapiens) [compound 323]”, the “Wells positive [%]” value in the assay on CD8+ T cells is recorded as ““+” (<20% = +)”. Also, the “Peptide exchange” value in the assay with HLA-B*44 is given as ““+++” (>50 =+++)”. In the same order, the values of “325 (QEQDVDLVQKY; listed as Homo sapiens) [compound 325]” are ““+” (<20% = +)” and ““++” (>20% = ++)”.

On to “326 (QEMQHFLGL; listed as Homo sapiens) [compound 326]”, for which the “Wells positive [%]” value with CD8+ T cells was ““+” (<20% = +)”. Besides, the “Peptide exchange” value with HLA-B*44 is recorded as ““+++” (>50 =+++)”.

With “328 (FEYDFLLQRI; listed as Homo sapiens) [compound 328]”, the “Wells positive [%]” value in the assay on CD8+ T cells is recorded as ““+” (<20% = +)”. Besides, the “Peptide exchange” value in the assay on HLA-B*44 is on record as ““++++” (>75% = ++++)”.

For “329 (NEHPSNNW; listed as Homo sapiens) [compound 329]”, the “Wells positive [%]” value in the assay with CD8+ T cells is reported as ““+” (<20% = +)”. In addition, the “Peptide exchange” value in the assay on HLA-B*44 is ““+++” (>50 =+++)”.

Consider “330 (KEGDLGGKQW; listed as Homo sapiens) [compound 330]”, for which the “Wells positive [%]” value in the assay with CD8+ T cells was ““+” (<20% = +)”. The “Peptide exchange” value with HLA-B*44 was ““+++” (>50 =+++)”. Turning to “331 (EDAQGHIW; listed as Homo sapiens) [compound 331]”, in the assay with CD8+ T cells, the “Wells positive [%]” value is given as ““++” (20%-49% = ++)”. For the same substance, the “Peptide exchange” value in the assay with HLA-B*44 is on record as ““+++” (>50 =+++)”.

With “333 (AETLSTIQI; listed as Homo sapiens) [compound 333]”, the “Wells positive [%]” value with CD8+ T cells was ““+” (<20% = +)”. Also, in the assay on HLA-B*44, the “Peptide exchange” value is given as ““+++” (>50 =+++)”. Turning to “334 (AEDEPAAAHL; listed as Homo sapiens) [compound 334]”, the “Wells positive [%]” value in the assay with CD8+ T cells was ““+” (<20% = +)”. In addition, the “Peptide exchange” value with HLA-B*44 is ““++” (>20% = ++)”.

In the case of “337 (TENRYCVQL; listed as Homo sapiens) [compound 337]”, the “Wells positive [%]” value in the assay on CD8+ T cells is given as ““++” (20%-49% = ++)”. Besides, the “Peptide exchange” value in the assay on HLA-B*44 is ““++++” (>75% = ++++)”. On to “338 (SEGSEPALLHSW; listed as Homo sapiens) [compound 338]”, for which the “Wells positive [%]” value with CD8+ T cells is ““+” (<20% = +)”. Moreover, the “Peptide exchange” value in the assay on HLA-B*44 is listed as ““+++” (>50 =+++)”. On to “339 (SEPALLHSW; listed as Homo sapiens) [compound 339]”, for which the “Wells positive [%]” value in the assay on CD8+ T cells is on record as ““++” (20%-49% = ++)”. The “Peptide exchange” value in the assay on HLA-B*44 is recorded as ““+++” (>50 =+++)”.

“342 (HEFSSPSHL; listed as Homo sapiens) [compound 342]”: the “Wells positive [%]” value in the assay on CD8+ T cells is listed as ““+” (<20% = +)”. Besides, the “Peptide exchange” value in the assay on HLA-B*44 is ““+++” (>50 =+++)”. Take “388 (FSIPEGALVAV; listed as Homo sapiens) [compound 388]”: the “Peptide exchange” value in the assay with HLA-A*02 is ““++++” (>75% = ++++)”. Turning to “389 (TLMEQPLTTL; listed as Homo sapiens) [compound 389]”, in the assay with HLA-A*02, the “Peptide exchange” value was ““++++” (>75% = ++++)”.

As to “390 (HIMPTVHTV; listed as Homo sapiens) [compound 390]”, the “Peptide exchange” value with HLA-A*02 is given as ““++++” (>75% = ++++)”. With “476 (AEEEIMKKI; listed as Homo sapiens) [compound 476]”, in the assay on CD8+ T cells, the “Wells positive [%]” value is recorded as ““+” (<20% = +)”. Besides, the “Peptide exchange” value in the assay with HLA-B*44 is given as ““++” (>20% = ++)”.

For “477 (QENSYQSRL; listed as Homo sapiens) [compound 477]”, the “Wells positive [%]” value with CD8+ T cells is reported as ““+” (<20% = +)”. Also, the “Peptide exchange” value in the assay on HLA-B*44 was ““+++” (>50 =+++)”.

“485 (SEIEDSTKQVF; listed as Homo sapiens) [compound 485]”: the “Peptide exchange” value in the assay on HLA-B*44 is given as ““+++” (>50 =+++)”. Take “486 (SEDDPILQI; listed as Homo sapiens) [compound 486]”: the “Peptide exchange” value in the assay with HLA-B*44 is given as ““+++” (>50 =+++)”. On to “487 (AEDQLHHSF; listed as Homo sapiens) [compound 487]”, for which, in the assay on HLA-B*44, the “Peptide exchange” value is ““+++” (>50 =+++)”. Regarding “488 (TEFPIIKMY; listed as Homo sapiens) [compound 488]”, the “Peptide exchange” value in the assay with HLA-B*44 is ““++” (>20% = ++)”. As for “489 (SEIGKAVGF; listed as Homo sapiens) [compound 489]”, the “Peptide exchange” value with HLA-B*44 was ““++++” (>75% = ++++)”.

For “AEIEADRSY (listed as Homo sapiens) [SEQ ID NO: 531]”, the “binding to HLA allotype” value in the assay on HLA-B*44 was “binds to HLA-B*44”.
